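The compound was tested at five concentrations on cells cultured in 96-well plates, with a 48-hour exposure period. Definition used: TGI = concentration required for complete inhibition of growth.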
Key:
Experiment in all cases: NCI-60 cell line screen, 48 h
OVCAR-8 ovarian = test system: OVCAR-8 ovarian
NCI/ADR-RES ovarian = test system: NCI/ADR-RES ovarian
HT29 colon = test system: HT29 colon
HCT-116 colon = test system: HCT-116 colon
SK-MEL-2 melanoma = test system: SK-MEL-2 melanoma
HOP-62 NSCLC = test system: HOP-62 NSCLC
MDA-MB-231 breast = test system: MDA-MB-231 breast
K-562 leukemia = test system: K-562 leukemia
SF-295 CNS = test system: SF-295 CNS
LOX IMVI melanoma = test system: LOX IMVI melanoma
UACC-62 melanoma = test system: UACC-62 melanoma
MALME-3M melanoma = test system: MALME-3M melanoma
OVCAR-5 ovarian = test system: OVCAR-5 ovarian
SK-MEL-28 melanoma = test system: SK-MEL-28 melanoma
UACC-257 melanoma = test system: UACC-257 melanoma
OVCAR-3 ovarian = test system: OVCAR-3 ovarian
PC-3 prostate = test system: PC-3 prostate
SF-539 CNS = test system: SF-539 CNS

Structure (SMILES) | TGI (OVCAR-8 ovarian) [µM] | TGI (NCI/ADR-RES ovarian) [µM] | TGI (HT29 colon) [µM] | TGI (HCT-116 colon) [µM] | TGI (SK-MEL-2 melanoma) [µM] | TGI (HOP-62 NSCLC) [µM] | TGI (MDA-MB-231 breast) [µM] | TGI (K-562 leukemia) [µM] | TGI (SF-295 CNS) [µM] | TGI (LOX IMVI melanoma) [µM] | TGI (UACC-62 melanoma) [µM] | TGI (MALME-3M melanoma) [µM] | TGI (OVCAR-5 ovarian) [µM] | TGI (SK-MEL-28 melanoma) [µM] | TGI (UACC-257 melanoma) [µM] | TGI (OVCAR-3 ovarian) [µM] | TGI (PC-3 prostate) [µM] | TGI (SF-539 CNS) [µM]
O=C1CCCN1C(=O)CS(=O)(=O)c1ccccc1 | > 100 | > 100 | > 100 | > 100 | > 100 | > 100 | > 100 | > 100 | > 100 | > 100 | > 100 | > 100 | > 100 | > 100 | > 100 | > 100 | > 100 | 
Cc1cc(C)c(-n2[nH]c(=O)n(C)c2=O)c(C)c1 | > 100 | > 100 | > 100 | > 100 | > 100 |  | > 100 | > 100 |  | > 100 | > 100 | > 100 | > 100 | > 100 | > 100 | > 100 | > 100 | > 100
O=C1OCC2OC(=O)c3cc(O)c(O)c(O)c3-c3c(O)c(O)c(O)c4c3C(=O)OC(C2OC(=O)c2cc(O)c(O)c(O)c2-c2c1cc(O)c(O)c2O)C1OC(=O)c2c-4c(O)c(O)c(O)c2[C@@H]1C(O)C(O)C(O)C(O)CO (stereo not given in full) | 44.1 | 66.1 | 36 | 31.3 | 48.3 | 34 | 30.5 | 33.3 | 43.7 | 6.04 | 36.7 | 38.9 | 33 | > 100 | 46.7 | 80.6 | 42.7 | 
COCc1nc(N)nc(N2N=C(C)CC2(C)C)n1 | > 100 | > 100 | > 100 | > 100 | > 100 | > 100 | > 100 | > 100 | > 100 | > 100 | > 100 |  | > 100 | > 100 | > 100 | > 100 | > 100 | > 100
COC(=O)[C@@H]1[C@H](OC(C)=O)CCC2[C@@]3(C[C@@H](c4ccoc4)O[C@@H]3OC)[C@H](C)CC[C@]21C(=O)OC (stereo not given in full) | > 25 | > 25 | > 25 | > 25 | > 25 |  | > 25 | > 25 | > 25 | > 25 | > 25 |  | > 25 |  | > 25 | > 25 | > 25 | > 25
COc1cc2c3c(c1)CCCN3CCC2 | > 10 | > 10 | > 10 | > 10 | > 10 | > 10 | > 10 | > 10 | > 10 | > 10 | > 10 | > 10 |  | > 10 | > 10 | > 10 | > 10 | > 10
CC(=O)c1ccc2c(c1)CC1(C2)Cc2cc3c(cc2C1=O)CCC3 (stereo not given) | 36.1 | 39.4 | > 100 | 44 | 46.2 | 81.3 | 49.6 | > 100 | 49 | 40.6 |  | 39.3 | 83 | 48.8 | 30.2 | 40.6 | 72.2 | 72.4
CCC(CCCN)Nc1cc(OC)cc2c(C)ccnc12 (stereo not given) | 42.2 | 76.4 | 28.6 | 37.2 | 41.5 | 29.2 | 28.5 | 39.5 | 32.9 | 31.6 |  | 50.4 | 32.5 | 30.6 | 33.7 | 34.7 | 26.2 | 33.4
CCC(C=O)P1(=O)OC(C)(C)CN1C(C)(C)C (stereo not given) | > 100 | > 100 | > 100 | > 100 | > 100 | > 100 | > 100 | > 100 | > 100 | > 100 | > 100 | > 100 | > 100 |  | > 100 | 81.3 | > 100 | > 100
COc1cc(/C=C/c2nc(NC(=S)Nc3ccccc3)nnc2C)cc(OC)c1OC | > 100 | > 100 | 48.8 | 86 | 38.1 | > 100 | > 100 | 78.2 | > 100 | > 100 | 51.1 | > 100 | > 100 | > 100 | > 100 |  | > 100 | 
CC(C)(C)OC(=O)N/N=C(/N)Cc1ccc(Cl)cc1 | > 100 | > 100 | > 100 | > 100 | > 100 | > 100 | > 100 | > 100 | > 100 | > 100 | > 100 | > 100 | > 100 | > 100 | > 100 | > 100 | > 100 | 
COC1/C=C/C(C)C(C(C)C(OC)C(C)CCC(=O)C(C)C(C/C=C/N(C)C=O)OC)OC(=O)C=CC2OC2(C)CC(OC)C(OC)C2=CC(=O)O[C@@H](C(C)C(OC)CC(OC)/C=C/C(C)C(O)C1)[C@H]2O (stereo not given in full) |  | 0.263 | 0.0108 | 0.00596 | 0.0446 | 0.0227 | 0.0197 |  | 0.0236 | 0.00617 | 0.0514 | 0.854 | 0.0464 |  | 0.0492 | 0.0341 | 0.0297 | 0.00742
O=C(NC1CCCCC1NC(c1ccccc1)(c1ccccc1)c1ccccc1)C(=O)NC1CCCCC1NC(c1ccccc1)(c1ccccc1)c1ccccc1 (stereo not given) | > 100 | > 100 | > 100 | > 100 | > 100 | > 100 | > 100 | > 100 | > 100 | > 100 |  | > 100 | > 100 | > 100 | > 100 | > 100 | > 100 | > 100
COc1cc2c(c(OC)c1)/C(=C/Sc1ccccc1)C(=O)N(C(C)(C)C)C2 | 79.6 | 56.7 | 75.1 | 40.2 | 42.5 | 83.8 | 64.4 | > 100 | 75.5 | 37.1 | 90 |  | > 100 | > 100 | 85.3 | 53.2 | > 100 | > 100
Cn1c(=O)c2c(nc3n2CC(=O)N3CCCCl)n(C)c1=O | > 100 | > 100 | > 100 | > 100 | > 100 | > 100 | > 100 | > 100 | > 100 | > 100 | > 100 |  | > 100 | > 100 | > 100 | > 100 | > 100 | 
CCOC(=O)/C(C=Nc1c(C)n(C)n(-c2ccccc2)c1=O)=C(/C)O | > 100 | > 100 |  | > 100 | > 100 |  | > 100 | > 100 | > 100 | > 100 | > 100 | > 100 | > 100 |  | > 100 | > 100 | > 100 | > 100
COc1ccc(C2SCC(=O)N2c2ccc(-c3ccc(-n4c(-c5ccccc5)nc5ccccc5c4=O)cc3)cc2)cc1OC (stereo not given) | > 100 | > 100 | > 100 | > 100 |  | 37.6 | > 100 | 96 | 33.5 | 51.5 | > 100 | > 100 |  | > 100 | > 100 | > 100 | > 100 | > 100
CCOC(=O)C1C(c2ccc3c(c2)OCO3)c2c([nH][nH]c2=O)CC1(C)O (stereo not given) | > 100 | > 100 | > 100 | > 100 | > 100 | > 100 | > 100 |  | > 100 | > 100 | > 100 | > 100 | > 100 | > 100 | > 100 | > 100 | > 100 | > 100
CCN(CC)CC1CCCCN1CC(=O)N1c2ccccc2C(=O)Nc2cccnc21 (stereo not given) | > 100 | 67.5 | > 100 | 37.2 | > 100 | > 100 | 75.8 |  | > 100 | 57.2 | > 100 | > 100 | > 100 | > 100 | 75.2 | > 100 | > 100 | > 100
COC1=CC(=O)C2=C(C1=O)[C@H]1CC[C@]3(C)[C@@H](O)CC[C@H]3[C@@H]1CC2 | 31.6 | 84 | 19 | 30.7 | 26.8 | 29.7 | 5.84 | 83.8 | 30.3 | 35.8 | 31.2 |  | 33.6 | 38.3 | 30 | 32.3 | 30 | 30.6
NC(N)=NCCCC(NC(=O)c1cccc2c(=O)c3ccccc3[nH]c12)C(=O)O (stereo not given) | > 100 | > 100 | > 100 | > 100 | > 100 | > 100 | > 100 | > 100 | > 100 | > 100 | > 100 | > 100 | > 100 | > 100 |  | > 100 | > 100 | 
CS(=O)(=O)OCC1CN(S(C)(=O)=O)c2cc(O)ccc21 (stereo not given) | 11.5 | 19.9 | 11.1 | 12.8 | 6.88 | 7.01 | 6.8 | 10.3 | 14.6 | 13.3 |  | 4.35 | 18.3 | 11.6 | 7.72 | 8.27 | 5.62 | 7
CCc1nn(CN2CCOCC2)c(=S)n1/N=C/c1ccc(-c2ccc(Cl)cc2)o1 | > 100 | > 100 | > 100 | > 100 | > 100 | > 100 | > 100 | > 100 | > 100 | > 100 |  |  | > 100 | > 100 | > 100 | > 100 | > 100 | > 100
O=C(c1ccccc1)c1ccc2nc(-c3c(Cl)c(Cl)c(Cl)c(Cl)c3C(=O)N/N=C/c3ccc(Cl)cc3)[nH]c2c1 | > 100 | > 100 | > 100 | > 100 | 72.4 | > 100 | 61.4 | > 100 | > 100 | > 100 |  | > 100 | > 100 | > 100 | > 100 | 51.5 | > 100 | > 100
COc1cc2c(cc1OC)C1C=NC(C2)c2cc(OC)c(OC)cc21 (stereo not given) | > 100 | > 100 | > 100 | > 100 | > 100 | > 100 | > 100 | > 100 | > 100 | > 100 | > 100 |  | > 100 | > 100 | > 100 | > 100 | > 100 | > 100
CC(=O)Nc1ccc(C(O)/C(=N/N)c2nc3ccc(Cl)cc3[nH]c2=O)cc1 (stereo not given) | > 100 | > 100 | > 100 | > 100 | > 100 | > 100 | > 100 |  | > 100 | > 100 | > 100 | > 100 | > 100 | > 100 | > 100 | > 100 | > 100 | > 100
COc1cc(C2SCC(=O)N2c2cccc(Cl)c2)cc(OC)c1OC (stereo not given) | > 100 | > 100 | > 100 | > 100 | > 100 |  | > 100 | > 100 | > 100 | > 100 | 54.3 |  | > 100 | > 100 | > 100 |  | > 100 | > 100
